Test results published in ChEMBL document CHEMBL4665849, “Synthesis and biological evaluation of imidazoline derivatives as potential CNS and CVS agents” (Bioorg Med Chem Lett, 2020).
Activity calls are given as the source filed them. No cut-off for these calls is given here.

What was measured:
[1] = system: Mus musculus; experiment: Hypotensive activity in mouse assessed as decrease in heart rate at 2.5 mg/kg; type: functional
[2] = system: Mus musculus; experiment: Modulation of cardiovascular activity in mouse assessed as inhibition of carotid occlusion-induced pressure response at 2.5 mg/kg; type: functional, organism-based
[3] = system: Mus musculus; experiment: Hypotensive activity in mouse assessed as decrease in delayed blood pressure at 2.5 mg/kg; type: functional
[4] = system: Mus musculus; experiment: Antidepressant activity in mouse assessed as total mean swimming time time at 5 mg/kg, ip (reference value: 2.08 to 3.12 min); type: functional
[5] = system: Mus musculus; experiment: Modulation of cardiovascular activity in mouse assessed as inhibition of norepinephrine induced pressure response at 2.5 mg/kg; type: functional, organism-based
[6] = system: Mus musculus; experiment: Analgesic activity in mouse assessed as maximum change in tail flick latency time at 10 mg/kg (reference value: 0.7 secs); type: functional
[7] = Toxicity in mouse; type: organism-based; settings: in vivo, read-out: ALD50
[8] = system: Mus musculus; experiment: Modulation of cardiovascular activity in mouse assessed as potentiation of norepinephrine induced pressure response at 2.5 mg/kg; type: functional, organism-based
[9] = system: Mus musculus; experiment: Hypotensive activity in mouse assessed as decrease in immediate blood pressure at 2.5 mg/kg; type: functional
[10] = system: Mus musculus; experiment: Analgesic activity in mouse assessed as time duration at which maximum change in tail flick latency occurs at 10 mg/kg (reference value: 60 mins); type: functional
[11] = system: Mus musculus; experiment: Antiaggressive activity in mouse assessed as reduction in foot shock induced fighting behavior by measuring fighting count at 10 mg/kg, ip (reference value: 6.6 to 24.3 counts); type: functional
[12] = system: Mus musculus; experiment: Antidepressant activity in mouse assessed as total mean swimming time at 15 mg/kg (reference value: 2.98 min); type: functional
[13] = species: Mus musculus; settings: dose 10.0 mg/kg
Description: Modulation of cardiovascular activity in mouse assessed as inhibition of carotid occlusion-induced pressure response at 10 mg/kg

[14] = species: Mus musculus; settings: dose 10.0 mg/kg; remark: listed apart in the source
Description: Modulation of cardiovascular activity in mouse assessed as inhibition of norepinephrine induced pressure response at 10 mg/kg

Compound: CC1=N/C(=C\c2ccoc2)C(=O)O1
- Activity [1]: inactive
- inhibition [2]: inactive
- Activity [3]: inactive
- Time [4]: 2.64 min
- inhibition [5]: inactive
- Time [6]: 8.8 s
- LD50 [7]: > 500 mg/kg
- Activity [8]: inactive
- Activity [9]: inactive
- Time [10]: 15 min
- Activity [11]: 6 Counts

Compound: O=C1/C(=C/c2ccoc2)N=C(CCN2CCOCC2)N1c1ccc(O)cc1
- Activity [1]: 18 bpm
- inhibition [2]: Active
- Activity [3]: 20 mmHg
- Time [4]: 1.3 min
- Time [6]: 5.2 s
- LD50 [7]: > 1000 mg/kg
- Activity [8]: Active
- Activity [9]: 35 mmHg
- Time [10]: 30 min
- Activity [11]: 6.6 Counts

Compound: CN(C)CCCN1c2ccccc2CCc2ccccc21 [IMIPRAMINE]
- Time [12]: 2.33 min

Compound: CC1=N/C(=C\c2ccccc2)C(=O)N1c1ccc(OCC2CO2)cc1 (configuration not stated)
- Activity [1]: 21 bpm
- inhibition [2]: Active
- Activity [3]: 45 mmHg
- Time [4]: 1.68 min
- Time [6]: 8.5 s
- LD50 [7]: > 500 mg/kg
- Activity [8]: Active
- Activity [9]: 25 mmHg
- Time [10]: 60 min
- Activity [11]: 6.3 Counts

Compound: CC1=N/C(=C\c2ccc(N(C)C)cc2)C(=O)N1c1ccc(O)cc1
- Activity [1]: 27 bpm
- inhibition [2]: Active
- Activity [3]: 50 mmHg
- Time [4]: 0.42 min
- Time [6]: 0.1 s
- LD50 [7]: > 500 mg/kg
- Activity [8]: Active
- Activity [9]: 25 mmHg
- Time [10]: 30 min
- Activity [11]: 1.6 Counts

Compound: CC1=N/C(=C\c2ccoc2)C(=O)N1c1ccc(OCC(O)CNc2ccc(Cl)cc2)cc1 (configuration not stated)
- Activity [1]: 27 bpm
- inhibition [2]: inactive
- Activity [3]: 20 mmHg
- Time [4]: 2.83 min
- inhibition [5]: inactive
- Time [6]: 6.9 s
- LD50 [7]: > 500 mg/kg
- Activity [8]: inactive
- Activity [9]: 25 mmHg
- Time [10]: 30 min
- Activity [11]: 10.6 Counts

Compound: CN(C)c1ccc(/C=C2\N=C(CCN3CCOCC3)N(c3ccc(O)cc3)C2=O)cc1
- Activity [1]: 30 bpm
- inhibition [2]: Active
- Activity [3]: 37 mmHg
- Time [4]: 0.5 min
- Time [6]: 2.6 s
- LD50 [7]: > 500 mg/kg
- Activity [8]: Active
- Activity [9]: 15 mmHg
- Time [10]: 60 min
- Activity [11]: 4.5 Counts

Compound: CC1=N/C(=C\c2ccc(N(C)C)cc2)C(=O)N1c1ccc(OCC2CO2)cc1 (configuration not stated)
- Activity [1]: 24 bpm
- inhibition [2]: Active
- Activity [3]: 28 mmHg
- Time [4]: 1.31 min
- inhibition [5]: Active
- Time [6]: 3.8 s
- LD50 [7]: > 500 mg/kg
- Activity [9]: 60 mmHg
- Time [10]: 30 min
- Activity [11]: 10.3 Counts

Compound: CC1=N/C(=C\c2ccccc2)C(=O)O1
- Activity [1]: 36 bpm
- inhibition [2]: Active
- Activity [3]: 40 mmHg
- Time [4]: 1.72 min
- Time [6]: 1.3 s
- LD50 [7]: > 500 mg/kg
- Activity [8]: Active
- Activity [9]: 25 mmHg
- Time [10]: 60 min
- Activity [11]: 6 Counts

Compound: O=C1/C(=C/c2ccccc2)N=C(CCN2CCOCC2)N1c1ccc(O)cc1
- Activity [1]: 15 bpm
- inhibition [2]: Active
- Activity [3]: 15 mmHg
- Time [4]: 0.84 min
- inhibition [5]: inactive
- Time [6]: 4 s
- LD50 [7]: > 500 mg/kg
- Activity [8]: inactive
- Activity [9]: 35 mmHg
- Time [10]: 60 min
- Activity [11]: 21.6 Counts

Compound: CC1=N/C(=C\c2ccoc2)C(=O)N1c1ccc(OCC2CO2)cc1 (configuration not stated)
- Activity [1]: 6 bpm
- inhibition [2]: Active
- Activity [3]: 20 mmHg
- Time [4]: 1.14 min
- Time [6]: 6.4 s
- LD50 [7]: > 1000 mg/kg
- Activity [8]: Active
- Activity [9]: 30 mmHg
- Time [10]: 60 min
- Activity [11]: 5 Counts

Compound: Clc1cccc(Cl)c1NC1=NCCN1
- inhibition [13]: Active
- inhibition [14]: Active

Compound: CC1=N/C(=C\c2ccccc2)C(=O)N1c1ccc(OCC(O)CNc2ccc(Cl)cc2)cc1 (configuration not stated)
- Activity [1]: 6 bpm
- inhibition [2]: Active
- Activity [3]: 17 mmHg
- Time [4]: 1.6 min
- Time [6]: 4.5 s
- LD50 [7]: > 200 mg/kg
- Activity [8]: Active
- Activity [9]: 50 mmHg
- Time [10]: 60 min
- Activity [11]: 11.3 Counts

Compound: CC1=N/C(=C\c2ccc(N(C)C)cc2)C(=O)O1
- Activity [1]: inactive
- inhibition [2]: Active
- Activity [3]: 15 mmHg
- Time [4]: 1.5 min
- Time [6]: 1.8 s
- LD50 [7]: > 500 mg/kg
- Activity [8]: Active
- Activity [9]: inactive
- Time [10]: 60 min
- Activity [11]: 7.3 Counts

Compound: CC1=N/C(=C\c2ccc(N(C)C)cc2)C(=O)N1c1ccc(OCC(O)CNc2ccc(Cl)cc2)cc1 (configuration not stated)
- Activity [1]: 21 bpm
- inhibition [2]: Active
- Activity [3]: 30 mmHg
- Time [4]: 0.84 min
- Time [6]: 0.9 s
- LD50 [7]: > 500 mg/kg
- Activity [8]: Active
- Activity [9]: 15 mmHg
- Time [10]: 30 min
- Activity [11]: 4.8 Counts

Compound: CC1=N/C(=C\c2ccccc2)C(=O)N1c1ccc(O)cc1
- Activity [1]: 12 bpm
- inhibition [2]: Active
- Activity [3]: 70 mmHg
- Time [4]: 2.74 min
- inhibition [5]: Active
- Time [6]: 6.4 s
- LD50 [7]: > 200 mg/kg
- Activity [9]: 15 mmHg
- Time [10]: 60 min
- Activity [11]: 8.6 Counts

Compound: CC1=N/C(=C\c2ccoc2)C(=O)N1c1ccc(O)cc1
- Activity [1]: 18 bpm
- inhibition [2]: inactive
- Activity [3]: 20 mmHg
- Time [4]: 2.52 min
- inhibition [5]: inactive
- Time [6]: 1.3 s
- LD50 [7]: > 500 mg/kg
- Activity [8]: inactive
- Activity [9]: 20 mmHg
- Time [10]: 60 min
- Activity [11]: 4.6 Counts
